Assay results: patent US7230033B2, “Pest control compositions and methods for their use” (United States of America as represented by the Secretary of …, priority 2000, dated 2007)

Legend:
[1] = system: fourth-instar Aedes aegypti larvae; assay: Larval mosquito bioassay; format: in vivo; conditions: Aedes aegypti larval mosquitoes; concentration of the 1 ml added to 150 ml water
Experimental: Individual groups of 10 fourth-instar Aedes aegypti larvae were contained in 150 ml of water and exposed to […] of essential oils prepared by 2-fold serial dilutions ranging from 0.06%–5.0% in 1 ml of acetone. A control group of larvae were exposed to 1 ml of acetone only.
It is important to note that larval mosquitoes are tested in their natural environment, i.e., in water. The particular assays used herein involved groups of 10 larval mosquitoes in 150 ml of water. The weight percentages reported for lethal concentration for larval mosquitoes are the weight percentages added to the 150 ml water (as opposed to the final percentage of the tested compound(s) in the 150 ml water). As one of skill in the art will appreciate, test compound(s) added to a volume of water (such as, 150 ml) can be dramatically diluted depending upon the water solubility of the tested compound. […] If the tested compound is an oil (such as, carvacrol, nootkatone, or 13-hydroxy-valencene), it most likely floats on the surface of the water.

[2] = system: X. cheopis adults; assay: Flea bioassay, treated 2-dram vials, probit analysis; format: in vivo, Xenopsylla cheopis; conditions: 24 h exposure
[3] = system: ticks, fleas, and mosquitoes; assay: Residual activity, general statements (Examples 9, 17); format: in vivo; conditions: ticks
[4] = system: Ixodes scapularis nymphs; assay: Residual activity, aged treated vials, ticks; format: in vivo
Experimental: Briefly, groups of 10 nymphal I. scapularis and X. cheopis fleas were used in all tests (more than a total of 5,240 nymphs and 4,860 fleas were exposed to the compounds). The inner surface of 2-dram friction cap vials were treated with the compound/acetone solution, or acetone only as a control, and left to air-dry overnight (see also, Panella et al., J. Med. Entomol., 42(3):352-358, 2005. Three to 4 holes were made in the plastic cap to allow for air exchange. Nymphal ticks and adult fleas were then placed directly into the vials using forceps. Vials containing ticks or fleas were placed in desiccators for 24 h at 21° C. and 90% RH. Morbidity and mortality was recorded at 1, 2, 4, 8, and 24 h after initial exposure.

[5] = system: Culex p. pipiens; assay: Mosquito susceptibility, serial dilutions (Example 8); conditions: in vivo
[6] = system: nymphal Ixodes scapularis; assay: Treated-vial biocidal screening with 2% acetone solutions (Example 2), tick nymphs; format: in vivo; conditions: treated vials sat 72 h; arthropods added for the final 24 h
Experimental: Samples of the compounds listed below were obtained as described in Example 1, and screened for biocidal activities against nymphal Ixodes scapularis. In this example, 2% acetone solutions (wt/vol) of the compounds were applied to inner surfaces of 2-dram friction cap vials. Vials and caps were treated then allowed to dry for a minimum of 4 hours before placing 10 nymphs in each container. These same vials were used to challenge additional nymphs and adult I. scapularis ticks and adult Xenopsylla cheopis fleas through five weeks to observe any possible residual activity.
Numbers in parentheses refer to length of treatment in terms of hours (h) or weeks (wk). Data is presented in terms of number killed/number tested. For test periods longer than 24 hours, the treated vials were allowed to sit for the stated period after drying (72 h, 4 wk, or 5 wk) and each group of arthropods was added to the vials for the final 24 h of the test period.

## C=C(C)[C@@H]1CCC2=CC(=O)C[C@@H](C)[C@]2(C)C1 [Compound 7, Nootkatone]
[1]
  LC50 (1 h): 5.327 % (wt:vol)
  LC50 (24 h): 1.605 % (wt:vol)
  LC90 (1 hr): 14.045 % (wt:vol)
  LC90 (24 h): 2.59 % (wt:vol)
[2]; NE = not effective at concentrations tested
  LC90: 0.019 percent concentration, wt:vol
[2]; probit
  Slope: 3.527
[3]
  residual activity: considerable biological activity through the four week time period
[4]; 1 week after treatment
  Slope, residual activity: 1.682
[4]; 2 weeks after treatment
  Slope, residual activity: 1.586
[4]; 4 weeks after treatment
  Slope, residual activity: 1.609
[4]; 4 weeks after treatment, NE = not effective
  LC50, residual activity: 0.026 percent concentration, wt:vol
[5]
  C. pipiens. LD50: <4.5 × 10^−3
[6]
  I. scapularis nymphs (72 h), number killed/number tested: 5/5
